Laboratory results taken from patent publication US12522593B2, “Azacycloalkyl carbonyl cyclic amine compound” (Alivexis, Inc., priority 2022, dated 2026).

Experiments:
[1] = molecular target: human recombinant CTSC (Homo sapiens (Human), UniProt P53634); assay: CTSC inhibition assay (in vitro), fluorescent substrate GF-AFC; assay type: biochemical; settings: 30 μmol/L GF-AFC, pH 5.0, 25° C.
Method: 1. CTSC Inhibition Assay (In Vitro)
A test specimen was evaluated by a CTSC inhibition assay using a fluorescent substrate GF-AFC (Gly-Phe-7-Amino-4-trifluoromethylcoumarin, MP Biomedical, 03AFC03325). Since the GF-AFC is converted by CTSC to aminotrifluoromethylcoumarin having a specific fluorescence wavelength and the produced amount is proportional to CTSC activity, quantitative analysis was performed by measuring a fluorescence intensity with a plate reader. CTSC inhibition assay for each compound was performed using a polystyrene-made non-adhesive surface-treated black 384 well plate under the following conditions.
A human recombinant CTSC (R&D systems, 1071-CY) was dissolved in a CTSC active cocktail (20 ng/mL of human recombinant cathepsin L (R&D systems, 952-CY, 25 mmol/L MES/NaOH (pH: 6.0), 5 mmol/L dithiothreitol (DTT)) so as to be 100 ng/mL and incubated at 18° C. for 30 minutes. The solution was diluted with a CTSC assay buffer (50 mmol/L MES/NaOH (pH: 5.0), 50 mmol/L NaCl, 0.001% Triton X-100, mmol/L DTT) so as to be 2 ng/mL in a case of performing CTSC inhibition assay.
The test specimen was dissolved in dimethylsulfoxide (DMSO) at 10 mmol/L to prepare a stock solution. In a case where a solution in which the stock solution was diluted 15-fold with DMSO was used as the maximum evaluation concentration (0.667 mmol/L), 5-fold dilution was repeated in DMSO from the solution to prepare a serially diluted solution. 248.8 μL of the CTSC assay buffer was added to 1.12 μL of the serially diluted sample prepared in the DMSO to prepare a solution of a CTSC inhibition assay compound.
The final composition of the CTSC inhibition assay mixture was 0.66 ng/mL activated CTSC, 50 mmol/L MES/NaOH (pH: 5.0), 50 mmol/L NaCl, 0.001% Triton X-100, 5 mmol/L DTT, 30 μmol/L GF-AFC, and 0.15% DMSO, and the procedure was as follows. That is, 4 μL of the compound solution and 4 μL of the 2 ng/mL activated CTSC solution were mixed with each other in a 384 well plate and incubated at 25° C. for 30 minutes. Thereafter, 4 μL of the GF-AFC solution dissolved in the CTSC assay buffer was added to the mixture so as to be 90 μmol/L. After mixing to be uniform, a fluorescence emission intensity at 505 nm in a case of being excited at 390 nm after incubating at 25° C. for 1 hour was measured with a plate reader. A 4-parameter regression analysis was performed with GraphPad Prism (manufactured by GraphPad Software) from a plot of the fluorescence intensity at 505 nm and the sample concentration, and an IC50 value was calculated.
Results of test compounds of Formula (I) are shown in Table 1 as IC50 (nM) values for which 50% inhibition concentration is calculated based on CTSC inhibition (%). In the table, Ex indicates an example number.

[2] = molecular target: CTSC in U937 cells (Homo sapiens (Human), UniProt P53634); assay: Intracellular CTSC inhibition assay (in vitro), LLOMe-induced cell death in U937 cells; assay type: cell-based; settings: 3 hours culture, CellTiter-Glo
CTSC in U937 cells, sequence (P53634 25-463): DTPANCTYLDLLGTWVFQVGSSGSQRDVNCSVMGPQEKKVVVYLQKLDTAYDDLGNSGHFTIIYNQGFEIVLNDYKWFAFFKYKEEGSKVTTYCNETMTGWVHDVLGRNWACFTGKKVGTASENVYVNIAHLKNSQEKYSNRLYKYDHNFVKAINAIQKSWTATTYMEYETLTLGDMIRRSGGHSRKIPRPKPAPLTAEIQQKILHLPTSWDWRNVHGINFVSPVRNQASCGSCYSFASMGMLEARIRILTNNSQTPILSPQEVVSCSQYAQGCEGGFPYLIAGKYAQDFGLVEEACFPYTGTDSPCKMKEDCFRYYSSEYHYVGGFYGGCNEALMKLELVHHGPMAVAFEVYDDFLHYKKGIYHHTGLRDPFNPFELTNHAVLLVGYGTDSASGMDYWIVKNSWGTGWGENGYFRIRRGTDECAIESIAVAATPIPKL
Method: 2. Intracellular CTSC Inhibition Assay (In Vitro)
A test specimen was evaluated by a degree of cell death in a case where a substrate LLOMe (L-Leucyl-L-Leucine methyl ester, hydrobromide salt, Sigma, 555045152) was added to U937 cells. The LLOMe is taken up into the cells by endocytosis and cleaved by CTSC. A product thereof induces lysosomal damage in cells and causes cell death in leukocytes and the like. Therefore, since the degree of cell death correlates with an amount of degradation of LLOMe, that is, with CTSC activity, by quantitatively analyzing the cell death, CTSC inhibitory activity of the test specimen in the cell was determined. CTSC inhibition assay was performed using a polystyrene-made white 384 well plate.
As the test specimen, a stock solution dissolved in DMSO was prepared so as to be 0.2 mmol/L, and in a case where a solution in which the stock solution was diluted 50-fold with a RPMI-1640 medium including 10% FBS was used as the maximum evaluation concentration (4000 nmol/L), a serially diluted solution was prepared by diluting the solution 3-fold with the medium. Thereafter, a 4-fold concentrated test specimen solution with the target final concentration was prepared.
U937 cells were cultured in a RPMI-1640 medium including 10% FBS, and diluted to prepare 90,000 cells/mL of cell suspension on the day of assay. 10 μL of the cell suspension was seeded per well. Next, 10 μL of the test specimen solution having a concentration 4 times the target final concentration was added thereto, and the mixture was allowed to stand for 30 minutes. Thereafter, 20 μL of a 300 μmol/L LLOMe solution dissolved in a RPMI-1640 medium including 10% FBS was added thereto, and the cells were cultured for 3 hours. After completion of the culture, 40 μL of CellTiter-Glo (registered trademark) reagent (Promega, G7570) was added to each well and mixed. After 15 minutes, 20 μL of the reaction solution in each well was transferred to a white 384 well plate, and a chemiluminescence intensity was measured with a plate reader. A 4-parameter regression analysis was performed with GraphPad Prism (manufactured by GraphPad Software) from a plot of the luminescence intensity and the sample concentration, and an IC50 value was calculated.
Results of test compounds of Formula (1) are shown in Table 2 as IC50 (nM) values for which 50% inhibition concentration is calculated based on CTSC inhibition (%). In the table, Ex indicates an example number.

human recombinant CTSC, sequence (P53634 25-134): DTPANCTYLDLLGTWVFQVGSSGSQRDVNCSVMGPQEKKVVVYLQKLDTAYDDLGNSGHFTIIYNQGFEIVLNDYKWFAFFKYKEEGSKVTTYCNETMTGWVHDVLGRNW
human recombinant CTSC, sequence (P53634 231-394): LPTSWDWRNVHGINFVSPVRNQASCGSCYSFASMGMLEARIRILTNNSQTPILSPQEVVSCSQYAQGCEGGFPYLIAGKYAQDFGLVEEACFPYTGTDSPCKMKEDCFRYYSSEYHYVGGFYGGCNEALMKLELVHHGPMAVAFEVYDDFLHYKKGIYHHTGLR
human recombinant CTSC, sequence (P53634 395-463): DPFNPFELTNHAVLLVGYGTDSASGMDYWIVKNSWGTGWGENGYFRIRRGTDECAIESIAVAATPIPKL

Row | IC50 [1] | Compound | IC50 [2]
1 | 0.69 nM | O=C([C@@H]1C[C@@H](O)C2(CCC2)CN1)N1CCC(c2noc(C3CCC(F)(F)CO3)n2)(C(F)(F)F)CC1 (stereo partly drawn) [Example 64, (4-(5-(5,5-Difluorotetrahydro-2H-pyran-2-yl)-1,2,4-oxadiazol-3-yl)-4-(trifluoromethyl)piperidin-1-yl)((7S,9R)-9-hydroxy-6-azaspiro[3.5]nonan-7-yl)methanone] | 0.74 nM
2 | 4.15 nM | O=C([C@@H]1C[C@@H](O)C2(CCC2)CN1)N1CCC(c2nc(C3CC(F)(F)C3)no2)(N2CCOCC2)CC1 [Example 65] | 30.1 nM
3 | 1.05 nM | O=C([C@@H]1C[C@@H](O)C2(CCC2)CN1)N1CCC(c2nnn(C3CCC(F)(F)CC3)n2)(C(F)(F)F)CC1 [Example 66] | 0.46 nM
4 | 3.25 nM | O=C([C@@H]1C[C@@H](O)C2(CCC2)CN1)N1CCC(c2nnn(C3CC(F)(F)C3)n2)(C(F)(F)F)CC1 [Example 67, (4-(2-(3,3-Difluorocyclobutyl)-2H-tetrazol-5-yl)-4-(trifluoromethyl)piperidin-1-yl)((7S,9R)-9-hydroxy-6-azaspiro[3.5]nonan-7-yl)methanone] | 1.41 nM
5 | 2.92 nM | O=C([C@@H]1C[C@@H](O)C2(CCC2)CN1)N1CCC(c2noc(C3CC(F)(F)C3)n2)(c2nccs2)CC1 [Example 68] | 5.44 nM
6 | 1.73 nM | O=C([C@@H]1C[C@@H](O)C2(CCC2)CN1)N1CCC(c2noc(C3CC(F)(F)C3)n2)(C2CC2)CC1 [Example 69] | 1.44 nM
7 | 1.63 nM | O=C([C@@H]1C[C@@H](O)C2(CCC2)CN1)N1CCC(c2noc(C3CC(F)(F)C3)n2)(c2cccs2)CC1 [Example 70] | 1.1 nM
8 | 3.73 nM | Cc1cnn(C2(c3noc(C4CC(F)(F)C4)n3)CCN(C(=O)[C@@H]3C[C@@H](O)C4(CCC4)CN3)CC2)c1 [Example 71] | 5.63 nM
9 | 2.48 nM | CC(C)C1(c2noc(C34CC(C3)C4)n2)CCN(C(=O)[C@@H]2C[C@@H](O)C3(CCC3)CN2)CC1 [Example 72] | 0.31 nM
10 | 3.28 nM | O=C([C@@H]1CC[C@@]2(CCO2)CN1)N1CCC(c2noc(C3CCC(F)(F)CC3)n2)(C(F)(F)F)CC1 [Example 73] | 4.05 nM
11 | 0.87 nM | O=C([C@@H]1C[C@@H](O)C2(CCC2)CN1)N1CCC(c2noc(C3CCC(F)(F)CC3)n2)(C2CC2)CC1 [Example 74] | 0.38 nM
12 | 2.21 nM | CN(C)C1(c2nc(C3CC(F)(F)C3)no2)CCN(C(=O)[C@@H]2C[C@@H](O)C3(CCC3)CN2)CC1 [Example 75] | 5.01 nM
13 | 187 nM | CC1(O)CC[C@@H](C(=O)N2CCC(c3noc(C4CC(F)(F)C4)n3)(C(F)(F)F)CC2)NC1 (some centres unmarked) [Example 76] | > 111 nM
14 | 3.79 nM | CC(=O)N(C)C1(c2nc(C3CC(F)(F)C3)no2)CCN(C(=O)[C@@H]2C[C@@H](O)C3(CCC3)CN2)CC1 [Example 77] | > 333 nM
15 | 5.68 nM | CN(C1(c2nc(C3CC(F)(F)C3)no2)CCN(C(=O)[C@@H]2C[C@@H](O)C3(CCC3)CN2)CC1)S(C)(=O)=O [Example 78] | 129 nM
16 | 2.17 nM | O=C([C@@H]1C[C@@H](O)C2(CCC2)CN1)N1CCC(c2ccsc2)(c2noc(C3CC(F)(F)C3)n2)CC1 [Example 79] | 0.75 nM

Row | IC50 [1] | Compound | IC50 [2]
17 | 1.86 nM | CC1(C)CN[C@H](C(=O)N2CCC(c3noc(C4CCC(F)(F)CC4)n3)(C3CC3)CC2)C[C@H]1O [Example 80, (4-Cyclopropyl-4-(5-(4,4-Difluorocyclohexyl)-1,2,4-oxadiazol-3-yl)piperidin-1-yl)((2S,4R)-4-hydroxy-5,5-dimethylpiperidin-2-yl)methanone] | 0.65 nM
18 | 1.31 nM | O=C([C@@H]1C[C@@H](O)C2(CCC2)CN1)N1CCC(c2cn(C3CCC(F)(F)CC3)nn2)(C(F)(F)F)CC1 [Example 81] | 13.7 nM
19 | 0.93 nM | CC(C)C1(c2noc(C3CCC(F)(F)CC3)n2)CCN(C(=O)[C@@H]2C[C@@H](O)C3(CCC3)CN2)CC1 [Example 82] | 0.25 nM
20 | 1.47 nM | Cc1ccc(C2(c3nc(C4CC(F)(F)C4)no3)CCN(C(=O)[C@@H]3C[C@@H](O)C4(CCC4)CN3)CC2)cc1 [Example 83] | 0.23 nM
21 | 1.25 nM | Cc1ccc(C2(C(=O)NCC3CCC(F)(F)CC3)CCN(C(=O)[C@@H]3CC[C@@]4(CCO4)CN3)CC2)cc1 [Example 84] | 1.92 nM
22 | 2.51 nM | O=C([C@@H]1CC[C@@]2(CCO2)CN1)N1CCC(C(=O)NCC2CCC(F)(F)CC2)(C(F)(F)F)CC1 [Example 85] | 4.12 nM
23 | 1.43 nM | CC(C)C1(c2noc(C3CCC(F)(F)CC3)n2)CCN(C(=O)[C@@H]2CC[C@@]3(CCO3)CN2)CC1 [Example 86] | 1.06 nM
24 | 3.54 nM | O=C([C@@H]1CC[C@@]2(CCO2)CN1)N1CCC(c2ccc(F)cc2)(c2nnc(C3CCC(F)(F)CC3)o2)CC1 [Example 87] | 4.02 nM
25 | 1.45 nM | O=C([C@@H]1C[C@@H](O)C2(CCC2)CN1)N1CCC(c2nnn(-c3ccc(F)cc3)n2)CC1 [Example 89, (4-(2-(4-Fluorophenyl)-2H-tetrazol-5-yl)piperidin-1-yl)((7S,9R)-9-hydroxy-6-azaspiro[3.5]nonan-7-yl)methanone] | 0.6 nM
26 | 4.34 nM | CC1(C)CN[C@H](C(=O)N2CCC(c3nnn(-c4ccc(F)cc4)n3)CC2)C[C@H]1O [Example 90, (4-(2-(4-Fluorophenyl)-2H-tetrazol-5-yl)piperidin-1-yl)((2S,4R)-4-hydroxy-5,5-dimethylpiperidin-2-yl)methanone] | 0.54 nM
27 | 0.84 nM | O=C([C@@H]1C[C@@H](O)C2(CCC2)CN1)N1CCC(c2ccnc(N3CCC(F)(F)CC3)c2)CC1 [Example 91] | 0.54 nM
28 | 2.76 nM | O=C([C@@H]1C[C@@H](O)C2(CCC2)CN1)N1CCC(c2cnc(N3CCC(F)(F)CC3)s2)CC1 [Example 92] | 3.62 nM
29 | 3.92 nM | O=C([C@@H]1C[C@@H](O)C2(CCC2)CN1)N1CCC(c2cnn(-c3ccc(F)cc3)c2)CC1 [Example 93] | 0.77 nM
30 | 0.37 nM | O=C([C@@H]1C[C@@H](O)C2(CCC2)CN1)N1CCC(c2nccc(N3CCC(F)(F)CC3)n2)CC1 [Example 94] | 3.86 nM
31 | 3.02 nM | O=C([C@@H]1C[C@@H](O)C2(CCC2)CN1)N1CCC(c2nnn(-c3ccc(F)cc3)n2)(C(F)(F)F)CC1 [Example 95] | 0.2 nM
